Experiment [1] addresses full length ERRα (Homo sapiens (Human), UniProt P11474). As to the kind of experiment: Full Length ERRα Reporter Gene Assay. In kind it is cell-based. The settings on record: SK-BR-3 cells, ERRα-RE luciferase reporter, overnight incubation; read-out: mean pIC50 (converted). The source says:
Full Length ERRα Reporter Gene Assay
A method was established to quantitatively screen the potency of compounds with inverse agonistic activity on the nuclear receptor ERRα of the human species. The assay allows intra-cellular screening of ERRα inverse agonists in SK-BR-3 cells using an over-expression construct coding full length ERRα and a reporter construct containing an ERRα Response Element (RE) and a luciferase gene for read out. The activity is expressed in log IC50 values and can be used to determine SAR of compound families or to de-select compounds.
In this assay, reporter cells are obtained by transient co-transfection of two constructs in SK-BR-3 cells using standard transfection techniques. The first construct contains a response element of the nuclear receptor ERRα (Plasmid pLP2175, Reporter construct ERRα-RE/luc2P, cloned variant of ERRα_v2_synthRE, Switchgear Genomics, Catalog Number S900089). This sequence drives the transcription of the luciferase reporter gene in response to binding of an ERRα protein encoded by the second construct (Plasmid pLP2124: full length ERRα expression construct using pcDNA3.1/Hygro(+) as background, Invitrogen Catalog Number V87020).
The day after transfection, cells were plated into 96 well plates, test compound was added and the plates were incubated overnight. Subsequently, the firefly luciferase activity was quantified using luciferase detection reagent and luminescence readout.
Detailed Assay Description
Transfection is performed on pre-seeded SK-BR-3 cells in a T175 flask. One transfected T175 flask is sufficient for seeding 3 to 4 MW96 plates the next day, depending on the confluency of the transfected cells.
Two different media are used in this protocol for cell treatment: 1) Culture medium, i.e. McCoy's 5a with phenol red (BioWhittaker Supplier Number 12-688F), 10% FBS and 1× Penstrep.; and, 2) Assay medium, i.e. McCoy's 5a Medium phenol red free (HyClone Product Code SH30270.01) with 2% Charcoal Stripped FBS and 1× Penstrep. Compound dilutions are prepared in assay medium.
Cells are seeded at least 2 days in advance to allow the cells to adhere well to flask before transfection. Cells should be 50-80% confluent at the day of transfection.
SKBR3 cells were transfected with the transcriptional reporter construct pLP2175 and the ERRα expression construct pLP2124 (as described above).
68 μL of Lipofectamine LTX transfection reagent (Invitrogen Catalog Number 15338-100) was added dropwise to 8.9 ml Opti-MEM I Reduced Serum Medium (Gibco Catalog Number 51985-026) and incubated at room temperature for 5 to 20 minutes. 8.9 ml of this reagent mixture was added to 22 μg pLP2175+22 μg pLP2124 (ratio 1:1 and total volume 10 ml), and incubated at room temperature for 25 minutes.
10 minutes before adding the transfection mix to SKBR3 cells in a T175 flask, the culture medium was refreshed with 20 mL culture medium. Subsequently, the 10 mL DNA-Opti-MEM-Lipofectamine mixture was gently added to the cells, followed by overnight (16-24 hours) incubation at 37° C. and 5% CO2.
To harvest SKBR3 cells from a T175 flask, first the medium was removed. Subsequently, cells were washed with Phosphate Buffered Saline (PBS) (Lonza), after which the PBS was removed. To dissociate the cells, 2 ml of TrypLE Express (Invitrogen) was added to the flask, followed by incubation at 37° C. for 5 minutes. The flask was tapped until cells were detached from the bottom. Cells were collected in 8 mL of culture medium (McCoy's 5α, 10% FBS, penstrep), to achieve a single cell suspension. After cell count, cells were spun down for 5 minutes at 300 g. Next cell pellets were re-suspended to 25000 cells/80 μl assay medium (McCoy's 5a phenol red free, 2% charcoal stripped FBS, penstrep).
For compound screening, the cells were harvested (as described above). 80 μL of cell suspension (25,000 cells) was plated per well into a white, flat bottom, tissue culture treated, 96 well screening plates (Greiner). […]
(In general: A reporter such as luciferase makes a cellular process visible.)

Experiment [2] has as its target ERRα ligand binding domain (ERRα-LBD) (Homo sapiens (Human), UniProt P11474). As to the kind of experiment: ERRα AlphaScreen Assay. The class given is biochemical. The conditions noted are these: disruption of binding of ERRα-LBD protein to biotin-PGC1α-3 co-activator peptide; for IC50: read-out: mean pIC50 (converted). Put shortly:
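Disruption of co-activator binding read by AlphaScreen: compounds in triplicate, 1% DMSO, Tris pH 7.5 buffer, room temperature. Bacterially expressed 6His-SUMO-ERRα-LBD at 0.81 nM with beads for 1 h, then 15 nM biotinylated PGC1α peptide for 2 h. IC50 from four-parameter fits, averaged as pIC50.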

Molecules are shown by their SMILES.

Chain of ERRα ligand binding domain (ERRα-LBD) (P11474 193-421): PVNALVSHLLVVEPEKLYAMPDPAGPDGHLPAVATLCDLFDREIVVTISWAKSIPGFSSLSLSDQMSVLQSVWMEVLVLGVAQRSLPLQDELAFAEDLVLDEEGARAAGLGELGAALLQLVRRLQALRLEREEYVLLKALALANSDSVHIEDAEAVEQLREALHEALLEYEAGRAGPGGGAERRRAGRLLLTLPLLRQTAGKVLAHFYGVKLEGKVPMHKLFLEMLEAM
Chain of full length ERRα (P11474 whole entry): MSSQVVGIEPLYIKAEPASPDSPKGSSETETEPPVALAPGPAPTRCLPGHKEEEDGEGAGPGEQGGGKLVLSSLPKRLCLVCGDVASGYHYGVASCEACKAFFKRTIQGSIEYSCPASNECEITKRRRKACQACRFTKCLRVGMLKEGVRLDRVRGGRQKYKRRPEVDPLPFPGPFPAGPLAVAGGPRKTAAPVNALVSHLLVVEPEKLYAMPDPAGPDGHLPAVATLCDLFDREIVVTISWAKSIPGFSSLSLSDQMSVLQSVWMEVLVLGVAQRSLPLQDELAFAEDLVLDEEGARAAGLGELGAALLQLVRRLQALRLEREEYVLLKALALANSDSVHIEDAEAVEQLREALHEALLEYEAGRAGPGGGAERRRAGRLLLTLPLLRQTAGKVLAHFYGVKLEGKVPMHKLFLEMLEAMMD

As to `COc1cc(C2CC(=O)Nc3n[nH]cc32)ccc1OCc1ccc(Br)cc1C(F)(F)F` (centres unmarked) [Example 33, 4-(4-{[4-bromo-2-(trifluoromethyl)phenyl]methoxy}-3-methoxyphenyl)-2H,4H,5H,6H,7H-pyrazolo[3,4-b]pyridin-6-one], the IC50 in experiment [1] is at most 316 nM. The “mean pIC50” value in experiment [2] is at least 8.
Take `COc1cc(C2CC(=O)Nc3n[nH]cc32)ccc1OCc1cccc(OC)c1C(F)(F)F` (centres unmarked) [Example 36, 4-(3-methoxy-4-{[3-methoxy-2-(trifluoromethyl)phenyl]methoxy}phenyl)-2H,4H,5H,6H,7H-pyrazolo[3,4-b]pyridin-6-one]: the IC50 in experiment [1] was at most 316 nM. Further, the “mean pIC50” value in experiment [2] was at least 8.
For `COc1cc(C2CC(=O)Nc3n[nH]cc32)ccc1OCc1ccccc1C(C)(C)C` (centres unmarked) [Example 40, 4-{4-[(2-tert-butylphenyl)methoxy]-3-methoxyphenyl}-2H,4H,5H,6H,7H-pyrazolo[3,4-b]pyridin-6-one], the IC50 in experiment [1] was at most 316 nM. In addition, the “mean pIC50” value in experiment [2] was at least 8.
As for `CCOc1cc(C2CC(=O)Nc3n[nH]cc32)ccc1OCc1ccccc1C(F)(F)F` (centres unmarked) [Example 62, 4-(3-ethoxy-4-{[2-(trifluoromethyl)phenyl]methoxy}phenyl)-2H,4H,5H,6H, 7H-pyrazolo[3,4-b]pyridin-6-one], the IC50 in experiment [1] was at most 316 nM. Moreover, in experiment [2], the “mean pIC50” value is recorded as at least 8.
On the same counts, the results for `O=C1CC(c2ccc(OCc3ccccc3C(F)(F)F)c(OC(F)F)c2)c2c[nH]nc2N1` (centres unmarked) [Example 68, 4-[3-(difluoromethoxy)-4-{[2-(trifluoromethyl)phenyl]methoxy}phenyl]-2H,4H,5H,6H, 7H-pyrazolo[3,4-b]pyridin-6-one] are at most 316 nM and at least 8.
In the case of `COc1cc(C2CC(=O)Nc3[nH]cnc32)ccc1OCc1ccccc1C(F)(F)F` (centres unmarked) [Example 89, 7-(3-methoxy-4-{[2-(trifluoromethyl)phenyl]methoxy}phenyl)-3H,4H,5H,6H, 7H-imidazo[4,5-b]pyridin-5-one], the IC50 in experiment [1] is at most 316 nM. The “mean pIC50” value in experiment [2] was at least 8.
On the same counts, the results for `COc1ccc(COc2ccc(C3CC(=O)Nc4[nH]nnc43)cc2OC)c(C(F)(F)F)c1` (centres unmarked) [Example 91, 7-(3-methoxy-4-{[4-methoxy-2-(trifluoromethyl)phenyl]methoxy}phenyl)-3H,4H,5H,6H,7H-[1,2,3]triazolo[4,5-b]pyridin-5-one] are at most 316 nM and at least 8.
As to `COc1cc(C2CC(=O)Nc3n[nH]nc32)ccc1OCc1ccc(C(C)=O)cc1C(F)(F)F` (centres unmarked) [Example 93, 7-(4-{[4-acetyl-2-(trifluoromethyl)phenyl]methoxy}-3-methoxyphenyl)-2H,4H,5H,6H,7H-[1,2,3]triazolo[4,5-b]pyridin-5-one], the results for the IC50 in experiment [1] and in experiment [2] were at most 316 nM and 10 to 100 nM, respectively.
As for `COc1cc(C2CC(=O)Nc3n[nH]cc32)ccc1COc1ccc(Br)cc1C(F)(F)F` (centres unmarked) [Example 96, 4-(4-{[4-bromo-2-(trifluoromethyl)phenoxy]methyl}-3-methoxyphenyl)-2H,4H,5H,6H, 7H-pyrazolo[3,4-b]pyridin-6-one], the IC50 in experiment [1] was at most 316 nM; in experiment [2] it was at most 10 nM.
Turning to `O=C1CC(c2ccc(COc3ccc(Br)cc3C(F)(F)F)c(OC(F)(F)F)c2)c2c[nH]nc2N1` (centres unmarked) [Example 106, 4-(4-{[4-bromo-2-(trifluoromethyl)phenoxy]methyl}-3-(trifluoromethoxy)phenyl)-2H,4H,5H,6H,7H-pyrazolo[3,4-b]pyridin-6-one], the IC50 in experiment [1] was at most 316 nM; in experiment [2], 10 to 100 nM.
Regarding `O=C1CC(c2ccc(COc3ccccc3S(F)(F)(F)(F)F)c(OC(F)(F)F)c2)c2c[nH]nc2N1` (centres unmarked) [Example 107, 4-(4-{[2-(pentafluoro-λ^6-sulfanyl)phenoxy]methyl}-3-(trifluoromethoxy)phenyl)-2H,4H,5H,6H, 7H-pyrazolo[3,4-b]pyridin-6-one], the IC50 is at most 316 nM in experiment [1] and 10 to 100 nM in experiment [2].
Regarding `COc1cc(C2CC(=O)Nc3n[nH]cc32)ccc1COc1ccc(C(F)F)cc1C(F)(F)F` (centres unmarked) [Example 115, 4-(4-{[4-(difluoromethyl)-2-(trifluoromethyl)phenoxy]methyl}-3-methoxyphenyl)-2H,4H,5H,6H,7H-pyrazolo[3,4-b]pyridin-6-one], the IC50 in experiment [1] was at most 316 nM. In experiment [2], the “mean pIC50” value was at least 8.
On the same counts, the results for `COc1cc(C2CC(=O)Nc3n[nH]cc32)ccc1COc1ccc(C#CCO)cc1C(F)(F)F` (centres unmarked) [Example 119, 4-(4-{[4-(3-hydroxyprop-1-yn-1-yl)-2-(trifluoromethyl)phenoxy]methyl}-3-methoxyphenyl)-2H,4H,5H,6H,7H-pyrazolo[3,4-b]pyridin-6-one] are at most 316 nM and at least 8.
In the case of `COc1cc(C2CC(=O)Nc3n[nH]cc32)ccc1OCc1ccc(NC(=O)CN)cc1C(F)(F)F` (centres unmarked) [Example 140, 2-amino-N-{4-[(2-methoxy-4-{6-oxo-2H,4H,5H,6H, 7H-pyrazolo[3,4-b]pyridin-4-yl}phenoxy)methyl]-3-(trifluoromethyl)phenyl}acetamide], the values for the IC50 in experiment [1] and in experiment [2] were at most 316 nM and 100 to 1000 nM, respectively.
Turning to `C=CCc1ccc(COc2ccc(C3CC(=O)Nc4n[nH]cc43)cc2OC)c(C(F)(F)F)c1` (centres unmarked) [Example 142, 4-(3-methoxy-4-{[4-(prop-2-en-1-yl)-2-(trifluoromethyl)phenyl]methoxy}phenyl)-2H,4H,5H,6H,7H-pyrazolo[3,4-b]pyridin-6-one], the IC50 in experiment [1] was at most 316 nM. In addition, the “mean pIC50” value in experiment [2] is on record as at least 8.
For `COc1cc(C2CC(=O)Nc3n[nH]cc32)ccc1OCc1ccc(CC(O)CO)cc1C(F)(F)F` (centres unmarked) [Example 143, 4-(4-{[4-(2,3-dihydroxypropyl)-2-(trifluoromethyl)phenyl]methoxy}-3-methoxyphenyl)-2H,4H,5H,6H, 7H-pyrazolo[3,4-b]pyridin-6-one], the IC50 in experiment [1] was at most 316 nM. The “mean pIC50” value in experiment [2] was at least 8.
`CCc1ccc(COc2ccc(C3CC(=O)Nc4n[nH]cc43)cc2OC)c(C(F)(F)F)c1` (centres unmarked) [Example 144, 4-(4-{[4-ethyl-2-(trifluoromethyl)phenyl]methoxy}-3-methoxyphenyl)-2H,4H,5H,6H, 7H-pyrazolo[3,4-b]pyridin-6-one]: the IC50 in experiment [1] was at most 316 nM. Further, the “mean pIC50” value in experiment [2] was at least 8.
With `COc1cc(C2CC(=O)Nc3n[nH]cc32)ccc1OCc1ccc(C2CC2)cc1C(F)(F)F` (centres unmarked) [Example 145, 4-(4-{[4-cyclopropyl-2-(trifluoromethyl)phenyl]methoxy}-3-methoxyphenyl)-2H,4H,5H,6H, 7H-pyrazolo[3,4-b]pyridin-6-one], the IC50 in experiment [1] was at most 316 nM. Besides, the “mean pIC50” value in experiment [2] is listed as at least 8.
Consider `COc1cc(C2CC(=O)Nc3n[nH]cc32)ccc1OCc1ccc(C#CCO)cc1C(F)(F)F` (centres unmarked) [Example 146, 4-(4-{[4-(3-hydroxyprop-1-yn-1-yl)-2-(trifluoromethyl)phenyl]methoxy}-3-methoxyphenyl)-2H,4H,5H,6H, 7H-pyrazolo[3,4-b]pyridin-6-one], for which the IC50 in experiment [1] was at most 316 nM. Moreover, in experiment [2], the “mean pIC50” value was at least 8.

For the origin of these results see patent US12527774B2, “Estrogen-related receptor alpha modulators” (LEAD PHARMA HOLDING B.V., priority 2019, dated 2026).
